Results from paper PMC8534050, “Discovery of a Potent and Highly Isoform-Selective Inhibitor of the Neglected Ribosomal Protein S6 Kinase Beta 2 (S6K2)” (Cancers, 2021).

Experiments:
[1] = Glutathione (GSH) stability assay (HPLC); details: glutathione (GSH, 5 mM) in MeCN/PBS buffer
Protocol: The reaction temperature was chosen to be 40 °C.
Glutathione (GSH) Stability Assay
• 0 min: 40% MeOH, 60% phosphate buffer pH 2.3;
• 20 min: 85% MeOH, 15% phosphate buffer pH 2.3;
• 9 min: 95% MeOH, 5% phosphate buffer pH 2.3;
• 10 min: 95% MeOH, 5% phosphate buffer pH 2.3;

S6K2 [2] = target: T1, S6K2 (Homo sapiens, UniProt Q9UBS0); experiment: HotSpot kinase assay (Reaction Biology); assay type: biochemical; details: apparent IC50; five-point; compound 2 triplicate, ± standard deviation
T1 construct: purchased Reaction Biology Corp
Protocol: The provided IC50 values were measured using the HotSpot^TM Kinase Profiling assay and conducted at Reaction Biology Corp. in their facilities in Malvern, PA, USA.

S6K1 = details: cited from earlier work
S6K2 [3] = tested on: S6K2; parameters: method as in PMID 20704563; details: cited from earlier work
CAMK4 = target: T2, CAMK4 (Homo sapiens, UniProt Q16566); experiment: DSF thermal shift assay; assay type: binding; details: read-out: ΔTm
T2 construct: purchased in-house DSF (thermal shift) panel per Fedorov et al
Protocol: (§1) Differences in the melting temperature (ΔTm) were measured as described by Fedorov et al.. Purified proteins were buffered in 25 mM HEPES (pH 7.5), 500 mM NaCl and were assayed in a 384-well plate with a final protein concentration of 2 μM in 10 μL assay volume. Inhibitors were added to a final concentration of 10 μM using an ECHO 550 acoustic dispenser (Labcyte, San José, CA, USA). As a fluorescence probe, SYPRO-Orange (Molecular Probes, Eugene, OR, USA) was added in a 1:5000 dilution. Filters for excitation and emission were set to 465 nm and 590 nm, respectively. The temperature was increased from 25 °C with 3 °C/min to a final temperature of 95 °C, while scanning, using the QuantStudio5 (Applied Biosystems, Waltham, MA, USA). Data were analyzed through Boltzmann equation in the Protein Thermal Shift software (Applied Biosystems, Waltham, MA, USA). Samples were measured in technical duplicates.

CAMKK2 = target: T3, CAMKK2 (Homo sapiens, UniProt Q96RR4); experiment: DSF thermal shift assay; assay type: binding; details: read-out: ΔTm
T3 construct: purchased in-house DSF (thermal shift) panel per Fedorov et al
Protocol: as §1

CDC42BPA = target: T4, CDC42BPA (Homo sapiens, UniProt Q5VT25); experiment: DSF thermal shift assay; assay type: binding; details: read-out: ΔTm
T4 construct: purchased in-house DSF (thermal shift) panel per Fedorov et al
Protocol: as §1

DAPK1 = target: T5, DAPK1 (Homo sapiens, UniProt P53355); experiment: DSF thermal shift assay; assay type: binding; details: read-out: ΔTm
T5 construct: purchased in-house DSF (thermal shift) panel per Fedorov et al
Protocol: as §1

DCAMKL1 = target: T6, DCAMKL1 (Homo sapiens, UniProt O15075); experiment: DSF thermal shift assay; assay type: binding; details: read-out: ΔTm
T6 construct: purchased in-house DSF (thermal shift) panel per Fedorov et al
Protocol: as §1

EPHA7 = target: T7, EPHA7 (Homo sapiens, UniProt Q15375); experiment: DSF thermal shift assay; assay type: binding; details: read-out: ΔTm
T7 construct: purchased in-house DSF (thermal shift) panel per Fedorov et al
Protocol: as §1

EPHB3 = target: T8, EPHB3 (Homo sapiens, UniProt P54753); experiment: DSF thermal shift assay; assay type: binding; details: read-out: ΔTm
T8 construct: purchased in-house DSF (thermal shift) panel per Fedorov et al
Protocol: as §1

MAPK13 = target: T9, MAPK13 (Homo sapiens, UniProt O15264); experiment: DSF thermal shift assay; assay type: binding; details: read-out: ΔTm
T9 construct: purchased in-house DSF (thermal shift) panel per Fedorov et al
Protocol: as §1

MAPK6 = target: T10, MAPK6 (Homo sapiens, UniProt Q16659); experiment: DSF thermal shift assay; assay type: binding; details: read-out: ΔTm
T10 construct: purchased in-house DSF (thermal shift) panel per Fedorov et al
Protocol: as §1

MERTK = target: T11, MERTK (Homo sapiens, UniProt Q12866); experiment: DSF thermal shift assay; assay type: binding; details: read-out: ΔTm
T11 construct: purchased in-house DSF (thermal shift) panel per Fedorov et al
Protocol: as §1

NEK2 = target: T12, NEK2 (Homo sapiens, UniProt P51955); experiment: DSF thermal shift assay; assay type: binding; details: read-out: ΔTm
T12 construct: purchased in-house DSF (thermal shift) panel per Fedorov et al
Protocol: as §1

OSR1 = target: T13, OSR1 (Homo sapiens, UniProt O95747); experiment: DSF thermal shift assay; assay type: binding; details: read-out: ΔTm
T13 construct: purchased in-house DSF (thermal shift) panel per Fedorov et al
Protocol: as §1

PAK1 = target: T14, PAK1 (Homo sapiens, UniProt Q13153); experiment: DSF thermal shift assay; assay type: binding; details: read-out: ΔTm
T14 construct: purchased in-house DSF (thermal shift) panel per Fedorov et al
Protocol: as §1

PLK4 = target: T15, PLK4 (Homo sapiens, UniProt O00444); experiment: DSF thermal shift assay; assay type: binding; details: read-out: ΔTm
T15 construct: purchased in-house DSF (thermal shift) panel per Fedorov et al
Protocol: as §1

RPS6K5 = target: T16, RPS6K5 (Homo sapiens, UniProt O75582); experiment: DSF thermal shift assay; assay type: binding; details: read-out: ΔTm
T16 construct: purchased in-house DSF (thermal shift) panel per Fedorov et al
Protocol: as §1

SLK = target: T17, SLK (Homo sapiens, UniProt Q9H2G2); experiment: DSF thermal shift assay; assay type: binding; details: read-out: ΔTm
T17 construct: purchased in-house DSF (thermal shift) panel per Fedorov et al
Protocol: as §1

STK10 = target: T18, STK10 (Homo sapiens, UniProt O94804); experiment: DSF thermal shift assay; assay type: binding; details: read-out: ΔTm
T18 construct: purchased in-house DSF (thermal shift) panel per Fedorov et al
Protocol: as §1

STK3 = target: T19, STK3 (Homo sapiens, UniProt Q13188); experiment: DSF thermal shift assay; assay type: binding; details: read-out: ΔTm
T19 construct: purchased in-house DSF (thermal shift) panel per Fedorov et al
Protocol: as §1

STK39 = target: T20, STK39 (Homo sapiens, UniProt Q9UEW8); experiment: DSF thermal shift assay; assay type: binding; details: read-out: ΔTm
T20 construct: purchased in-house DSF (thermal shift) panel per Fedorov et al; IC50 follow-up at Reaction Biology Corp
Protocol: as §1

WNK1 = target: T21, WNK1 (Homo sapiens, UniProt Q9H4A3); experiment: DSF thermal shift assay; assay type: binding; details: read-out: ΔTm
T21 construct: purchased in-house DSF (thermal shift) panel per Fedorov et al
Protocol: as §1

T17 sequence (Q9H2G2 whole entry): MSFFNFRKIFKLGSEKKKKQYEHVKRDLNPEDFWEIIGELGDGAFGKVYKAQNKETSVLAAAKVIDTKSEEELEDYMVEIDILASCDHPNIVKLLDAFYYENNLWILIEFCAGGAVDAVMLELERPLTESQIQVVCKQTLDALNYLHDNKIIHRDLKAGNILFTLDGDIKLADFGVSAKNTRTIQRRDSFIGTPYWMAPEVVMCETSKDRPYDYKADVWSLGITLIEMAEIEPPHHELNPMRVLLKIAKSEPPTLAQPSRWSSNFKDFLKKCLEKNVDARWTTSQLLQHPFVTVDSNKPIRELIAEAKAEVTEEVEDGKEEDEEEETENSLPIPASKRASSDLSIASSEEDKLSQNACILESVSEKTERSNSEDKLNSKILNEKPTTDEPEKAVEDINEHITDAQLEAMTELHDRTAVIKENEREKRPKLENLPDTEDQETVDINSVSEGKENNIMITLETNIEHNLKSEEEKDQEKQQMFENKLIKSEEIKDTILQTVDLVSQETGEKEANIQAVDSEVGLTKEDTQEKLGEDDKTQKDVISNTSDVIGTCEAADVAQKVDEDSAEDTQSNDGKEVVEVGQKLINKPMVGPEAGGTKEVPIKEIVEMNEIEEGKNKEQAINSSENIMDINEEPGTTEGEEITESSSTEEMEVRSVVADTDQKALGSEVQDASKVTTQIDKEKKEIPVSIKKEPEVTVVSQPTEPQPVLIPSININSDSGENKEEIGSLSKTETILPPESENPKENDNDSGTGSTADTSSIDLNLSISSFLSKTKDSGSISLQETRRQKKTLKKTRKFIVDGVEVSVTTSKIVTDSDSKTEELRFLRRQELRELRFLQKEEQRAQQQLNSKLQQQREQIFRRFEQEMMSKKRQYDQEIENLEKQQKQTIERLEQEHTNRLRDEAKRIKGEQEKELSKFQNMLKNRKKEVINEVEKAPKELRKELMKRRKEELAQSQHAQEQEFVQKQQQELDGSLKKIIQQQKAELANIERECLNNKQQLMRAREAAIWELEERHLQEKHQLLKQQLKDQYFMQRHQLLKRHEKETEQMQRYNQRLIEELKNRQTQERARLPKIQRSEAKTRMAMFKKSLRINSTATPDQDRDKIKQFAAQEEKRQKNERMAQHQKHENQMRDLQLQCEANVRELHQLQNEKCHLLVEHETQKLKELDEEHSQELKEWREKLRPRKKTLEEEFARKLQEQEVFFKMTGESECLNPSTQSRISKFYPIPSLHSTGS
T11 sequence (Q12866 21-999): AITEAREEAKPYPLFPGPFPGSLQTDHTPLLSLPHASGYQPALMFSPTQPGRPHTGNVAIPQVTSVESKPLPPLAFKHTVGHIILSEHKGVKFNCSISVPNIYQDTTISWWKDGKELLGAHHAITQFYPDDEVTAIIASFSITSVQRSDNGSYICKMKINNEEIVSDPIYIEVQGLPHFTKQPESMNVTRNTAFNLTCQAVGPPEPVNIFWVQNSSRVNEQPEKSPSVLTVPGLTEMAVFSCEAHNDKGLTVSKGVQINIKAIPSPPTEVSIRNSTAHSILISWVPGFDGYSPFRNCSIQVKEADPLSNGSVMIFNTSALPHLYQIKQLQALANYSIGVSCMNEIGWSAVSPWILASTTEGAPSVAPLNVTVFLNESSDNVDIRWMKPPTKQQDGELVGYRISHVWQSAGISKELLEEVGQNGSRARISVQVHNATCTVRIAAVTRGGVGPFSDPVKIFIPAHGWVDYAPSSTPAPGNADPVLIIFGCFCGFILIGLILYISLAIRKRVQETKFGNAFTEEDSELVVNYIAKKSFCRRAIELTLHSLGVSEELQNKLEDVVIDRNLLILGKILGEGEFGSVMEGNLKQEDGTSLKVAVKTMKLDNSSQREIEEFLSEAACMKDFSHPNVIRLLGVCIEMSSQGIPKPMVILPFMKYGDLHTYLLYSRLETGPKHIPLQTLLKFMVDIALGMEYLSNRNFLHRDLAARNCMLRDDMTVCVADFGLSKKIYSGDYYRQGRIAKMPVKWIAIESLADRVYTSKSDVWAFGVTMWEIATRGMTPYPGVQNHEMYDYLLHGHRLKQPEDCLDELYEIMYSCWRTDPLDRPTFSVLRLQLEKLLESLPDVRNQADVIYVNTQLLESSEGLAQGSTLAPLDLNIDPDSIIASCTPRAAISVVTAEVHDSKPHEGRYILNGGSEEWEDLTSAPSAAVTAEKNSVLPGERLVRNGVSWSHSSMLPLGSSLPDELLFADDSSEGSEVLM
T7 sequence (Q15375 28-998): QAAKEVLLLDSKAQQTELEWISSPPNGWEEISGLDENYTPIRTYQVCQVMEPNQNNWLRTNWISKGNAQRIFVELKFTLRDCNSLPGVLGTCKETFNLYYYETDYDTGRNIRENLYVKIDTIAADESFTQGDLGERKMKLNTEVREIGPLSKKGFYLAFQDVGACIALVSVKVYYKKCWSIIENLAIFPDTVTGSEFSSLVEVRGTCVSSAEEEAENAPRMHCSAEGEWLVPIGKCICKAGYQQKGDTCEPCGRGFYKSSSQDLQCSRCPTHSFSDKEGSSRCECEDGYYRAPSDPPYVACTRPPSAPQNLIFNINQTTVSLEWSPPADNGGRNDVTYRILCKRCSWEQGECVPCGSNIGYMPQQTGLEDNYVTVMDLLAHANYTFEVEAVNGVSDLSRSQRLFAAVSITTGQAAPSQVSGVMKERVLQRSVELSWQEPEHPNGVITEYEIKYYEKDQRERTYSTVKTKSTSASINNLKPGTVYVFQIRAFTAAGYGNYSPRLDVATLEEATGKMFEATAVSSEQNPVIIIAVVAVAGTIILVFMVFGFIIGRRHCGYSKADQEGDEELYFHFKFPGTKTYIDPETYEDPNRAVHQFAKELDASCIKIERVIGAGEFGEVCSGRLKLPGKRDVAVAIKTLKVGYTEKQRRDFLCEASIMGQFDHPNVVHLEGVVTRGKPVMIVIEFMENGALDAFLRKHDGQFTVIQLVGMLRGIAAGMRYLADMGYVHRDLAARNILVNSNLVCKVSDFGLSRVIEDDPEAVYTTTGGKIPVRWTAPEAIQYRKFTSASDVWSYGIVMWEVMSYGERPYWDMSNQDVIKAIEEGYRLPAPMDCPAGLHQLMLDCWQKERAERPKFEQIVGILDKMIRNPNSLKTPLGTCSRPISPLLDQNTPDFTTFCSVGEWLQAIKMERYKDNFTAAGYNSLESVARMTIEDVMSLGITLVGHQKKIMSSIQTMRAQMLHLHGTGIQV
T6 sequence (O15075 whole entry): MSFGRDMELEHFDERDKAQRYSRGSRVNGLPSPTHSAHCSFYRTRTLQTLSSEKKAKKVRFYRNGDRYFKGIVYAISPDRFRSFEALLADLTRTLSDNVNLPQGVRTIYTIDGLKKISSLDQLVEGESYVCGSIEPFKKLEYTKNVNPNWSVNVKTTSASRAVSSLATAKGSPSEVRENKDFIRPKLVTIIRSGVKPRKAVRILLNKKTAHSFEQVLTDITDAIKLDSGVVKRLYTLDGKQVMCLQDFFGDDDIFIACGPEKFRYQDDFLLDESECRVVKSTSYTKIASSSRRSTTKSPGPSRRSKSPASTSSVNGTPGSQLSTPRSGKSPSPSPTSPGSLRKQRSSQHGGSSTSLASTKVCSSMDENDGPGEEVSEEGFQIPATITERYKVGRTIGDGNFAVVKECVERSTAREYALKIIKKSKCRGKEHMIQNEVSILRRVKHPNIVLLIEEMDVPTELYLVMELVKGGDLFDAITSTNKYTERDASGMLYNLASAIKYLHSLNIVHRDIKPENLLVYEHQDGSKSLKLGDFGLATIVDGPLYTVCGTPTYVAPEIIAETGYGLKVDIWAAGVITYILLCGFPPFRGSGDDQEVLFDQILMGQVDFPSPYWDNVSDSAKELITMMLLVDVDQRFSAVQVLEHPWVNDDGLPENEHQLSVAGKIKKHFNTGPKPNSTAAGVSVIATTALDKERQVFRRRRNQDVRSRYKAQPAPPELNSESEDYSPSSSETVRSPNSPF
T8 sequence (P54753 34-998): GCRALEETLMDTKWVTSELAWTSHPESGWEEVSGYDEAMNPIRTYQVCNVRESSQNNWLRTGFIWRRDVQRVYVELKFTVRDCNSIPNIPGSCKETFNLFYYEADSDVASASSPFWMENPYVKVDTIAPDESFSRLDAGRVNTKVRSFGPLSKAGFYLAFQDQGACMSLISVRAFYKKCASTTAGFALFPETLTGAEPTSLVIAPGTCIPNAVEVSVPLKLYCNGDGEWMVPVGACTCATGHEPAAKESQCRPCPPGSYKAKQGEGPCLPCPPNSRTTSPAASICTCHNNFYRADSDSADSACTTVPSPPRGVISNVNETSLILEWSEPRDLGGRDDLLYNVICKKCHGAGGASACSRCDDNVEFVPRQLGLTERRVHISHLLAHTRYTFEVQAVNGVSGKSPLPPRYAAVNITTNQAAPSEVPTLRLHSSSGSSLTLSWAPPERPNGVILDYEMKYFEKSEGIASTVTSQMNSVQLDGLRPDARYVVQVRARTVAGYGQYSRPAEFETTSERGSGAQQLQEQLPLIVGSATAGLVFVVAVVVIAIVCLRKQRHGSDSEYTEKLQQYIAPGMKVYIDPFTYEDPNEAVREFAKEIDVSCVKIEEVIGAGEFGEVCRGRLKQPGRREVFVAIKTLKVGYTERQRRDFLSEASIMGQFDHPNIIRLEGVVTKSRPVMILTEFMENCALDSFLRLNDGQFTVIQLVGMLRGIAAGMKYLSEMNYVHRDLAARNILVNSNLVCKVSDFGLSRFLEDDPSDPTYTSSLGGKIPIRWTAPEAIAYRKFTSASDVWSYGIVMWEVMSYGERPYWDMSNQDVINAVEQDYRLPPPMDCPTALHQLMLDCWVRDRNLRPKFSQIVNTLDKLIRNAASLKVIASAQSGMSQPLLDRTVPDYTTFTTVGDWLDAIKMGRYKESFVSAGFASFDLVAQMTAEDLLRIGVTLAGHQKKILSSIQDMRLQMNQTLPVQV

Work on `CN(C)C/C=C/C(=O)Nc1cc2c(Nc3ccc(F)c(Cl)c3)ncnc2cc1O[C@H]1CCOC1` [Afatinib] yielded a half-life at […] [1] of 5 h.

`CCc1cnc(Nc2ncccc2[N+](=O)[O-])nc1N1CCN(Cc2nc3cc(C(F)(F)F)ccc3[nH]2)CC1` [Compound 21] showed an IC50 (S6K2 [2]) of over 5 µM.

In the case of `CCc1cncnc1N1CCN(Cc2nc3ccc(C(F)(F)F)cc3[nH]2)CC1` [PF-4708671], the IC50 (S6K1) is given as 0.16 µM, the Ki (S6K1) is given as 0.02 µM and the IC50 (S6K2 [3]) is given as 65 µM.

With `CN[C@@H]1C[C@H]2O[C@@](C)([C@@H]1OC)n1c3ccccc3c3c4c(c5c6ccccc6n2c5c31)C(=O)NC4` [Staurosporine, reference compound] the ΔTm at 10 µM (CAMK4) was 8.9 °C, the ΔTm at 10 µM (CAMKK2) was 25.1 °C and the ΔTm at 10 µM (CDC42BPA) was 2.2 °C. It also gave a ΔTm at 10 µM (DAPK1) of 9.6 °C, a ΔTm at 10 µM (DCAMKL1) of 6.3 °C and a ΔTm at 10 µM (EPHA7) of 12.7 °C. It also gave a ΔTm at 10 µM (EPHB3) of 6.7 °C, a ΔTm at 10 µM (MAPK13) of 6.2 °C and a ΔTm at 10 µM (MAPK6) of 1 °C. For the same compound, the ΔTm at 10 µM (MERTK) was 5.9 °C, the ΔTm at 10 µM (NEK2) was 2.2 °C and the ΔTm at 10 µM (OSR1) was 7.6 °C. The ΔTm at 10 µM (PAK1) was 7.4 °C, the ΔTm at 10 µM (PLK4) was 19 °C and the ΔTm at 10 µM (RPS6K5) was 15 °C. For the same compound, the ΔTm at 10 µM (SLK) was 20.8 °C, the ΔTm at 10 µM (STK10) was 24.4 °C and the ΔTm at 10 µM (STK3) was 14.8 °C. It also gave a ΔTm at 10 µM (STK39) of 9.3 °C and a ΔTm at 10 µM (WNK1) of 1.4 °C.
